The values that follow come from ChEMBL document CHEMBL1201862, “PubChem BioAssay data set” (2004).

For one assay, the system named is P388/ADR. The assay can be described thus: cells. Format: functional. Conditions: Mus musculus.
The next assay deals with P388. Nature of the assay: cells. In kind it is functional. Conditions: Mus musculus.
The next assay relates to SN12K1. The assay can be described thus: cells. Format: functional. Conditions: Homo sapiens.
In assay [1] the target is T1, Corticotropin-releasing factor receptor 2/Corticotropin-releasing factor-binding protein (Homo sapiens, UniProt P24387+Q13324).
T1 sequence (Q13324 whole entry): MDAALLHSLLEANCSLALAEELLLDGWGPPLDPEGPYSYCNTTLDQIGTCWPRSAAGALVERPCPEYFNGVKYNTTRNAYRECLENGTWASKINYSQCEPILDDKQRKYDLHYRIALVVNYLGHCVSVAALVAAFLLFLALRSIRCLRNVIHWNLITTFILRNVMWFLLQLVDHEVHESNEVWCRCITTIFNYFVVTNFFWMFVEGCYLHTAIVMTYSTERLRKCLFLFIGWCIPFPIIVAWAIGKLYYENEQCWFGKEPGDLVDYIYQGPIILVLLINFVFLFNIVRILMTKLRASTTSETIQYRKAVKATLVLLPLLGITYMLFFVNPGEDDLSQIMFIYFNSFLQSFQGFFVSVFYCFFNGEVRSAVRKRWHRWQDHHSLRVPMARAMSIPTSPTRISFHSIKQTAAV
T1 sequence (P24387 whole entry): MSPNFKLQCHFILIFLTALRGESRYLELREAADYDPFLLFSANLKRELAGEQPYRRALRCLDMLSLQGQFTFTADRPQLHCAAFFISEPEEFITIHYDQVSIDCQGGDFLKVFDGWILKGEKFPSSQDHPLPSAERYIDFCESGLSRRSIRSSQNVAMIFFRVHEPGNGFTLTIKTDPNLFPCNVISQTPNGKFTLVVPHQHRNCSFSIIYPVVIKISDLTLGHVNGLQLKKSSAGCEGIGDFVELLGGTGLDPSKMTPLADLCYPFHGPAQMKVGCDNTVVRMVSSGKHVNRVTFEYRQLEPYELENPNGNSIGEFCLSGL
The assay can be described thus: Dose Response confirmation of uHTS hits for small molecule antagonists of the CRF-binding protein and CRF-R2 receptor complex. The conditions noted are these: read-out: IC50_Mean. In kind it is functional.

Assay [2] addresses T1, Corticotropin-releasing factor receptor 2/Corticotropin-releasing factor-binding protein. Nature of the assay: activators of CRF receptor 2 with binding protein – uHTS hits, confirmation (AID 602473). In kind it is functional. The conditions noted are these: read-out: EC50_Mean.
Another assay relates to INS1. The assay can be described thus: INS-1E survival protection against cytokine death – cell-based, luminescence, retest, dose response (AID 449756).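 Also: cell death triggered by IL-1 beta plus TNF-alpha plus IFN-gamma mixture; protective hits raise ATP signal compared with cytokine alone wells.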 Format: functional. The conditions noted are these: Rattus norvegicus.
The target of assay [3] is T2, Rac GTPase-activating protein 1 (Homo sapiens, UniProt Q9H0H5).
T2 sequence (Q9H0H5 whole entry): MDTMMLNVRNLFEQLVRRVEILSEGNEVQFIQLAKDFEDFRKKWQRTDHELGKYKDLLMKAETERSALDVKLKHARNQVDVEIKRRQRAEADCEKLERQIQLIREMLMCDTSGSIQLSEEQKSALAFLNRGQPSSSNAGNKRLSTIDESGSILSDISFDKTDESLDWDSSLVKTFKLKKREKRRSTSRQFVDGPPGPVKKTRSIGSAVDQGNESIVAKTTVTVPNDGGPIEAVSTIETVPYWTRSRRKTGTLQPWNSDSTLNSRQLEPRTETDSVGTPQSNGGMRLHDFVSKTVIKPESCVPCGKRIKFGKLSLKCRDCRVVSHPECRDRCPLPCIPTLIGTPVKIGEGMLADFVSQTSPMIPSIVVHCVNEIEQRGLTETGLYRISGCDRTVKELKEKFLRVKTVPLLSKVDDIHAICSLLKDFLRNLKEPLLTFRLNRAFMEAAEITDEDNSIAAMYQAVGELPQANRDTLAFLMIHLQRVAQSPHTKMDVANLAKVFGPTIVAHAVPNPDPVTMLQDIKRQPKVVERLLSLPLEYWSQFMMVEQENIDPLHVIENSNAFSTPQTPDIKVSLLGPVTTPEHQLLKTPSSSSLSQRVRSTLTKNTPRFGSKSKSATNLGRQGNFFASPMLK
The assay can be described thus: blockers of MgcRacGAP-driven Rac1 GTP hydrolysis – biochemical, ADP Hunter fluorescence, primary and confirmatory, confirmation (AID 624330). In kind it is functional.

Assay [4] can be described thus: viability of uninfected HEp-2 cells – cell-based, HTS, cytotoxicity control for RSV inhibitor project, dose response (AID 2410). Conditions: human respiratory syncytial virus. In kind it is functional.
A further assay deals with Cytochrome P450 2D6 (Homo sapiens, UniProt P10635).
Cytochrome P450 2D6, sequence (P10635 whole entry): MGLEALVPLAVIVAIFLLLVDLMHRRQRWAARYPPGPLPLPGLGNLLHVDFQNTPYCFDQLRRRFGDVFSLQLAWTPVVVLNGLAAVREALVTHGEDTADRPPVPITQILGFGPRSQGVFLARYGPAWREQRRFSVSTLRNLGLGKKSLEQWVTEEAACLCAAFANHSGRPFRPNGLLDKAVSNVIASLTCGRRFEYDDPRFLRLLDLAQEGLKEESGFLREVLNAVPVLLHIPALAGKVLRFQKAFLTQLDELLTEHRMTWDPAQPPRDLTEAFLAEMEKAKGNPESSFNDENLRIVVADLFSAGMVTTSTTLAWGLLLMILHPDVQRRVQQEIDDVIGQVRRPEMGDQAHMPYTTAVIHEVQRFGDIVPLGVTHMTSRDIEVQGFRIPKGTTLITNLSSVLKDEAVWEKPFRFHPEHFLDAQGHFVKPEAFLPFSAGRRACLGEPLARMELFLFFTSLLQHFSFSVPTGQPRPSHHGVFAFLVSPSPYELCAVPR
The next assay concerns the target Cytochrome P450 3A4 (Homo sapiens, UniProt P08684).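 Also: CYP3A4 tested as one member of a cytochrome P450 panel screen.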

The source made the active and inactive calls.

Cytochrome P450 3A4, sequence (P08684 whole entry): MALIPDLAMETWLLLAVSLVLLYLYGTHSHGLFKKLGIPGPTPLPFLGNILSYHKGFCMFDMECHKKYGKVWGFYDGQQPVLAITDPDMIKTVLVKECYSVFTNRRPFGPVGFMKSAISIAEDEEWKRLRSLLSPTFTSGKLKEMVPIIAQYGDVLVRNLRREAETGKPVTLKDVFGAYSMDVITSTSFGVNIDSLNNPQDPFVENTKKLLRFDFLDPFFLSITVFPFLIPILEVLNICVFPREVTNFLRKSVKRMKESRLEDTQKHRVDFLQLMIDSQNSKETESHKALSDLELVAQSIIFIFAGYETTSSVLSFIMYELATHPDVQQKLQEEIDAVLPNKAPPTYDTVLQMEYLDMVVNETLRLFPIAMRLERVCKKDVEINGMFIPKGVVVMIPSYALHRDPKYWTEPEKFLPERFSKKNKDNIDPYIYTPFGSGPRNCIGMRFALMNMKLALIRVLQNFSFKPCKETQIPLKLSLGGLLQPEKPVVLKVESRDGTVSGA

For orientation: GI50 means the concentration giving 50% growth inhibition. Turning to `CCOC(=O)c1ccc(N[C@@H]2c3cc4c(cc3C(c3cc(OC)c(O)c(OC)c3)[C@H]3C(=O)OCC32)OCO4)cc1O` (stereo partly specified), the GI50 was 0.227 µM (active) in the assay with P388/ADR, < 0.01 µM (active) in the assay on P388 and 0.0887 µM (active) with SN12K1.

With `CC(Sc1nnnn1-c1ccccc1)C(=O)Nc1ccccc1-c1ccccc1` (stereo unspecified), in assay [1], the IC50 was > 47.1 µM (inactive). In addition, the EC50 in assay [2] was > 53 µM (inactive).

The AC50 is the midpoint of the concentration-response curve, whichever way the signal moves. On to `CCSc1ccc(NC(=O)c2cccnc2)cc1`, for which, in the assay with INS1, the AC50 is 7.23 µM (active).

Take `[N-]=[N+]=CC(=O)OCC(N)C(=O)O` (stereo unspecified): the concentration for 50% growth inhibition (GI50) was 0.352 µM (active) in the assay with P388/ADR, 0.156 µM (active) in the assay with P388 and 0.206 µM (active) with SN12K1.

For `COc1cccc2c1C(=O)c1c(O)c3c(c(O)c1C2=O)C[C@@](O)(/C(C)=N/NC(=O)c1ccccc1)C[C@@H]3OC1CC(N)C(O)C(C)O1` (stereo partly specified), the GI50 is 5.61 µM (inactive) with P388/ADR, 0.132 µM (active) in the assay on P388 and 0.0586 µM (active) in the assay on SN12K1.

As to `CCOC(=O)c1c(-c2ccccc2)csc1NC(=O)C(C)NCCCN1CCOCC1` (stereo unspecified), the IC50 in assay [3] is 86.1 µM (active).

As to `CCCCOc1ccc(NC(=O)CN2CCN(CC)CC2)cc1`, the IC50 in assay [3] was 71.7 µM (active).

`Cc1c2ccnc(-c3ccccc3)c2cc2c1[nH]c1ccccc12`: the GI50 is 2.63 µM (inactive) in the assay on P388/ADR, 2.9 µM (inactive) with P388 and 1.39 µM (inactive) in the assay on SN12K1.

`COc1ccc(NC2CCCN(C(=O)c3cccc(C)n3)C2)cc1OC` (stereo unspecified): the IC50 in assay [1] was > 47.1 µM (inactive). In addition, in assay [2], the EC50 is > 53 µM (inactive).

For `CCCCC(C)C1CCC2(C)C=CC(=O)C(C)=C2C1O` (stereo unspecified), the GI50 with P388/ADR, with P388 and in the assay with SN12K1 was > 100 µM (inactive) in each case.

`Nc1ccc2[nH]c3c(-c4ccccc4)nccc3c2c1`: the values for the GI50 with P388/ADR, in the assay with P388 and in the assay with SN12K1 were 19.9 µM (inactive), 6.21 µM (inactive) and 22.3 µM (inactive), respectively.

On to `C/C(=N\Nc1nc(C)cc(-c2ccccc2)n1)c1ccccc1`, for which the AC50 with INS1 was 2.37 µM (active).

`Cc1ccc(C)c(NC(=O)Cn2cnc3c(oc4ccccc43)c2=O)c1`: the IC50 in assay [1] was > 47.1 µM (inactive). Further, the EC50 in assay [2] is > 53 µM (inactive).

In general, CC50 refers to the concentration giving 50% cytotoxicity. In the case of `C/C(N)=C(/C#N)C(=O)COC(=O)c1cc(-c2cccc3ccccc23)nc2ccccc12`, the CC50 in assay [4] is 7.25 µM (active).

Consider `CC1C(O)C2(Oc3cc4c(c5c3[C@@H](CC5O)[C@H]2C)CCC2Cc3nc5c(nc3C[C@@]42C)CC2CCC3C4=C[C@H]6O[C@@]7(O[C@@](C)(CO)C[C@@H]7O)C(C)[C@@]6(O)[C@]4(C)[C@@H](O)CC3[C@]2(C)C5)OC1(C)C` (stereo partly specified), for which the figures for the 50% growth inhibitory concentration (GI50) in the assay on P388/ADR, in the assay on P388 and with SN12K1 were 0.52 µM (active), 0.0278 µM (active) and 0.0278 µM (active), respectively.

Consider `FC(F)(F)c1ccccc1N=C(S)N1CCc2ccccc2C1`, for which, in the assay on INS1, the AC50 was 8.78 µM (active).

Regarding `C=C1C(=O)C[C@@]23CCC[C@@]12CC(O)C3` (stereo partly specified), the GI50 is 5.15 µM (inactive) in the assay on P388/ADR, 3.61 µM (inactive) in the assay with P388 and 17 µM (inactive) with SN12K1.

In the case of `O=C(N/N=C/c1ccccc1Cl)C1CC1`, in [1], the IC50 was > 47.1 µM (inactive). In assay [2], the EC50 is > 53 µM (inactive).

With `COc1cccc(OC)c1NC(=O)CN1CCN(C)CC1`, in [3], the IC50 is 100 µM (active).

For the molecule `Nc1ncnc2c1ncn2[C@@H]1O[C@H](COP(=O)(O)O)[C@@H](O)[C@@H]1O`, the values for the GI50 in the assay on P388/ADR, in the assay on P388 and in the assay on SN12K1 were > 16.1 µM (inactive), > 7.93 µM (inactive) and > 50 µM (inactive), respectively.

Take `CC(=O)N1CCN(CC(O)COc2ccc(Br)cc2)CC1` (stereo unspecified): in [3], the IC50 was 159 µM (active).

Take `COc1cc(C=C2C(=O)NC(=O)NC2=O)ccc1OCc1ccc([N+](=O)[O-])cc1`: the IC50 in assay [3] was 158 µM (active).

As to `Cc1ccc(N(Cc2ccc([N+](=O)[O-])cc2)C(=O)c2ccco2)cc1`, in assay [1], the IC50 was > 47.1 µM (inactive). The AC50 at Cytochrome P450 2D6 is 0.562 µM (inconclusive); at Cytochrome P450 3A4, 28.2 µM (inconclusive). Also, the EC50 in assay [2] is > 53 µM (inactive).

For the molecule `O=NN(CCCl)C(=O)NC1CCSc2ccccc21` (stereo unspecified), the GI50 in the assay on P388/ADR was 27.9 µM (inactive); in the assay on P388 it was 21.1 µM (inactive); in the assay on SN12K1, > 100 µM (inactive).

Turning to `O=C(NCc1ccncc1)c1cc(-c2ccc(Cl)cc2)oc1C(F)(F)F`, the AC50 in the assay on INS1 was 18.6 µM (active).

Regarding `CCOC(=O)c1sc(NC(=O)CSc2n[nH]c(-c3ccncc3)n2)c(C#N)c1C`, the IC50 in assay [1] is 16.3 µM (active). Also, the EC50 in [2] is 8.57 µM (active).

In the case of `CC1=CN2C(=NC(=O)CC2(C)C(=O)N(CC(=O)NC2CCCC2)c2ccccc2C)C=C1` (stereo unspecified), in assay [1], the IC50 was > 47.1 µM (inactive). Besides, in [2], the EC50 is > 53 µM (inactive).

For the molecule `CCOC(=O)c1ccc(NC(=O)c2cccnc2)cc1`, the concentration at half-maximal activity (AC50) in the assay with INS1 is 3.75 µM (active).

As for `N#CC1=C(N)Oc2cc(O)c(/C=N/c3ccccc3)cc2C1c1ccccc1` (stereo unspecified), in assay [4], the CC50 is 9.1 µM (active).

Consider `COc1ccc2[nH]c3ccc4cc[n+](CCN5CCC(C6CCN(CC[n+]7ccc8ccc9[nH]c%10ccc(OC)cc%10c9c8c7)CC6)CC5)cc4c3c2c1`, for which the GI50 was 1.84 µM (inactive) in the assay on P388/ADR, 0.546 µM (active) in the assay with P388 and 0.417 µM (active) in the assay on SN12K1.

As to `COc1cc(OC)cc(-c2c(-c3cccs3)c3cc(-c4cc[nH]n4)ccc3n2C)c1`, in [4], the CC50 was 11.9 µM (active).

Take `CC(=O)OCC1OC(n2cc(F)c(=O)[nH]c2=O)C(NC(=O)OCc2ccccc2)C(OC(C)=O)C1OC(C)=O` (stereo unspecified): the GI50 with P388/ADR, with P388 and in the assay on SN12K1 was > 100 µM (inactive) each time.

With `Cc1cc(C)cc(Oc2cc(NC(=O)c3cn(C)nc3C)cc([N+](=O)[O-])c2)c1`, the concentration at half-maximal activity (AC50) in the assay with INS1 was 13.5 µM (active).

Turning to `COc1ccccc1-n1cnnc1SCC(=O)NCc1cccs1`, the IC50 in assay [1] was > 47.1 µM (inactive). Further, the EC50 in assay [2] was > 53 µM (inactive).

For the molecule `Cc1ccc(-n2nnnc2SCC(=O)Nc2cccnc2Cl)cc1`, the IC50 in [1] was > 47.1 µM (inactive). Moreover, the EC50 in assay [2] was > 53 µM (inactive).

As for `C[C@@H]1O[C@@H](O[C@H]2CC[C@]3(C=O)[C@H]4CC[C@]5(C)[C@@H](c6ccc(=O)oc6)CC[C@]5(O)[C@@H]4CC[C@]3(O)C2)[C@H](O)[C@H](O)[C@H]1O[C@@H]1O[C@H](CO)[C@@H](O)[C@H](O)[C@H]1O` [HELLEBRIN], the GI50 in the assay with P388/ADR is 113 µM (inactive); with P388, 64.7 µM (inactive); in the assay on SN12K1, 0.0375 µM (active).

`Cc1ccc(CNC(=O)c2cc(-c3ccccc3C)n(CC3CC(c4cccc([N+](=O)[O-])c4)=NO3)n2)cc1` (stereo unspecified): the IC50 in assay [1] is > 47.1 µM (inactive). In addition, the EC50 in [2] is > 53 µM (inactive).

For `CC(C)CN1CCN(Cc2cccc3nccnc23)CC1CCO` (stereo unspecified), in assay [1], the IC50 is > 47.1 µM (inactive). In addition, the EC50 in [2] was > 53 µM (inactive).

For the molecule `Oc1[nH]ncc1/C=N/c1ccc(Cl)cc1`, the IC50 in assay [1] was > 47.1 µM (inactive). The EC50 in assay [2] is > 53 µM (inactive).

Turning to `CCOc1ccc(CN2CCN(Cc3c[nH]c4ccccc34)CC2)cc1`, the AC50 with INS1 is 7.24 µM (active). In assay [3], the IC50 is 93 µM (active).
